# Laboratory results: PubChem BioAssay (NCI)
#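 Briefly, cells in 96-well plates were exposed to five compound concentrations for 48 h, and endpoints were estimated by linear interpolation. GI50: concentration for 50% inhibition of growth. TGI: concentration producing complete growth inhibition.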
# Tested on: 786-0 renal
# Experiment: NCI-60 cell line screen, 48 h
Structure (SMILES),GI50,TGI
CNCc1cccc2c1OCCOCCOCCN(C)S(=O)(=O)c1ccc(cc1)-c1cnc(N)c(n1)C(=O)N2,446 nM,1.99 µM
CN(C)c1ccc(/C=C(\NC(=O)c2ccccc2)C(=O)NC(CC(=O)O)C(=O)O)cc1 (configuration not stated),–,> 100 µM
COC(=O)[C@]1(C)CCC[C@@]2(C)C1CC[C@]13C=C(C(C)C)[C@H](CC21)CC3(Cl)C#N (some centres not stated),–,> 100 µM
COc1ccc2c(c1)c(-c1nc(-c3c[nH]c4ncccc34)cs1)cn2CCCN1CCOCC1,1740 nM,3.44 µM
COC1OC(C)C(NC(=O)OCC(Cl)(Cl)Cl)C2OC(C)(C)OC12 (configuration not stated),–,> 100 µM

# Tested on: A498 renal
# Experiment: NCI-60 cell line screen, 48 h
Structure (SMILES),GI50,TGI
CNCc1cccc2c1OCCOCCOCCN(C)S(=O)(=O)c1ccc(cc1)-c1cnc(N)c(n1)C(=O)N2,133 nM,4.04 µM
CN(C)c1ccc(/C=C(\NC(=O)c2ccccc2)C(=O)NC(CC(=O)O)C(=O)O)cc1 (configuration not stated),–,> 100 µM
COC(=O)[C@]1(C)CCC[C@@]2(C)C1CC[C@]13C=C(C(C)C)[C@H](CC21)CC3(Cl)C#N (some centres not stated),–,> 100 µM
COc1ccc2c(c1)c(-c1nc(-c3c[nH]c4ncccc34)cs1)cn2CCCN1CCOCC1,481 nM,2.04 µM
COC1OC(C)C(NC(=O)OCC(Cl)(Cl)Cl)C2OC(C)(C)OC12 (configuration not stated),–,> 100 µM

# Tested on: A549 NSCLC
# Experiment: NCI-60 cell line screen, 48 h
Structure (SMILES),GI50,TGI
CNCc1cccc2c1OCCOCCOCCN(C)S(=O)(=O)c1ccc(cc1)-c1cnc(N)c(n1)C(=O)N2,1570 nM,13.4 µM
CN(C)c1ccc(/C=C(\NC(=O)c2ccccc2)C(=O)NC(CC(=O)O)C(=O)O)cc1 (configuration not stated),–,> 100 µM
COC(=O)[C@]1(C)CCC[C@@]2(C)C1CC[C@]13C=C(C(C)C)[C@H](CC21)CC3(Cl)C#N (some centres not stated),–,> 100 µM
COc1ccc2c(c1)c(-c1nc(-c3c[nH]c4ncccc34)cs1)cn2CCCN1CCOCC1,4040 nM,13.1 µM
COC1OC(C)C(NC(=O)OCC(Cl)(Cl)Cl)C2OC(C)(C)OC12 (configuration not stated),–,> 100 µM

# Tested on: ACHN renal
# Experiment: NCI-60 cell line screen, 48 h
Structure (SMILES),GI50,TGI
CNCc1cccc2c1OCCOCCOCCN(C)S(=O)(=O)c1ccc(cc1)-c1cnc(N)c(n1)C(=O)N2,468 nM,2.21 µM
CN(C)c1ccc(/C=C(\NC(=O)c2ccccc2)C(=O)NC(CC(=O)O)C(=O)O)cc1 (configuration not stated),–,> 100 µM
COC(=O)[C@]1(C)CCC[C@@]2(C)C1CC[C@]13C=C(C(C)C)[C@H](CC21)CC3(Cl)C#N (some centres not stated),–,> 100 µM
COc1ccc2c(c1)c(-c1nc(-c3c[nH]c4ncccc34)cs1)cn2CCCN1CCOCC1,2500 nM,8.22 µM
COC1OC(C)C(NC(=O)OCC(Cl)(Cl)Cl)C2OC(C)(C)OC12 (configuration not stated),–,> 100 µM

# Tested on: BT-549 breast
# Experiment: NCI-60 cell line screen, 48 h
Structure (SMILES),GI50,TGI
CNCc1cccc2c1OCCOCCOCCN(C)S(=O)(=O)c1ccc(cc1)-c1cnc(N)c(n1)C(=O)N2,3270 nM,21.6 µM
CN(C)c1ccc(/C=C(\NC(=O)c2ccccc2)C(=O)NC(CC(=O)O)C(=O)O)cc1 (configuration not stated),–,> 100 µM
COC(=O)[C@]1(C)CCC[C@@]2(C)C1CC[C@]13C=C(C(C)C)[C@H](CC21)CC3(Cl)C#N (some centres not stated),–,86 µM
COc1ccc2c(c1)c(-c1nc(-c3c[nH]c4ncccc34)cs1)cn2CCCN1CCOCC1,2000 nM,5.87 µM
COC1OC(C)C(NC(=O)OCC(Cl)(Cl)Cl)C2OC(C)(C)OC12 (configuration not stated),–,> 100 µM

# Tested on: CAKI-1 renal
# Experiment: NCI-60 cell line screen, 48 h
Structure (SMILES),GI50,TGI
CNCc1cccc2c1OCCOCCOCCN(C)S(=O)(=O)c1ccc(cc1)-c1cnc(N)c(n1)C(=O)N2,980 nM,17.9 µM
CN(C)c1ccc(/C=C(\NC(=O)c2ccccc2)C(=O)NC(CC(=O)O)C(=O)O)cc1 (configuration not stated),–,> 100 µM
COC(=O)[C@]1(C)CCC[C@@]2(C)C1CC[C@]13C=C(C(C)C)[C@H](CC21)CC3(Cl)C#N (some centres not stated),–,> 100 µM
COc1ccc2c(c1)c(-c1nc(-c3c[nH]c4ncccc34)cs1)cn2CCCN1CCOCC1,1880 nM,4.67 µM
COC1OC(C)C(NC(=O)OCC(Cl)(Cl)Cl)C2OC(C)(C)OC12 (configuration not stated),–,> 100 µM

# Tested on: CCRF-CEM leukemia
# Experiment: NCI-60 cell line screen, 48 h
Structure (SMILES),GI50,TGI
CNCc1cccc2c1OCCOCCOCCN(C)S(=O)(=O)c1ccc(cc1)-c1cnc(N)c(n1)C(=O)N2,549 nM,3.95 µM
CN(C)c1ccc(/C=C(\NC(=O)c2ccccc2)C(=O)NC(CC(=O)O)C(=O)O)cc1 (configuration not stated),–,> 100 µM
COC(=O)[C@]1(C)CCC[C@@]2(C)C1CC[C@]13C=C(C(C)C)[C@H](CC21)CC3(Cl)C#N (some centres not stated),–,60.6 µM
COc1ccc2c(c1)c(-c1nc(-c3c[nH]c4ncccc34)cs1)cn2CCCN1CCOCC1,2760 nM,8.09 µM
COC1OC(C)C(NC(=O)OCC(Cl)(Cl)Cl)C2OC(C)(C)OC12 (configuration not stated),–,> 100 µM

# Tested on: COLO 205 colon
# Experiment: NCI-60 cell line screen, 48 h
Structure (SMILES),GI50,TGI
CNCc1cccc2c1OCCOCCOCCN(C)S(=O)(=O)c1ccc(cc1)-c1cnc(N)c(n1)C(=O)N2,775 nM,3.23 µM
CN(C)c1ccc(/C=C(\NC(=O)c2ccccc2)C(=O)NC(CC(=O)O)C(=O)O)cc1 (configuration not stated),–,> 100 µM
COC(=O)[C@]1(C)CCC[C@@]2(C)C1CC[C@]13C=C(C(C)C)[C@H](CC21)CC3(Cl)C#N (some centres not stated),–,> 100 µM
COc1ccc2c(c1)c(-c1nc(-c3c[nH]c4ncccc34)cs1)cn2CCCN1CCOCC1,1820 nM,3.8 µM
COC1OC(C)C(NC(=O)OCC(Cl)(Cl)Cl)C2OC(C)(C)OC12 (configuration not stated),–,> 100 µM

# Tested on: DU-145 prostate
# Experiment: NCI-60 cell line screen, 48 h
Structure (SMILES),GI50,TGI
CNCc1cccc2c1OCCOCCOCCN(C)S(=O)(=O)c1ccc(cc1)-c1cnc(N)c(n1)C(=O)N2,1270 nM,15.2 µM
CN(C)c1ccc(/C=C(\NC(=O)c2ccccc2)C(=O)NC(CC(=O)O)C(=O)O)cc1 (configuration not stated),–,> 100 µM
COC(=O)[C@]1(C)CCC[C@@]2(C)C1CC[C@]13C=C(C(C)C)[C@H](CC21)CC3(Cl)C#N (some centres not stated),–,> 100 µM
COc1ccc2c(c1)c(-c1nc(-c3c[nH]c4ncccc34)cs1)cn2CCCN1CCOCC1,3150 nM,11 µM
COC1OC(C)C(NC(=O)OCC(Cl)(Cl)Cl)C2OC(C)(C)OC12 (configuration not stated),–,> 100 µM

# Tested on: EKVX NSCLC
# Experiment: NCI-60 cell line screen, 48 h
Structure (SMILES),GI50,TGI
CNCc1cccc2c1OCCOCCOCCN(C)S(=O)(=O)c1ccc(cc1)-c1cnc(N)c(n1)C(=O)N2,2830 nM,12.7 µM
CN(C)c1ccc(/C=C(\NC(=O)c2ccccc2)C(=O)NC(CC(=O)O)C(=O)O)cc1 (configuration not stated),–,> 100 µM
COC(=O)[C@]1(C)CCC[C@@]2(C)C1CC[C@]13C=C(C(C)C)[C@H](CC21)CC3(Cl)C#N (some centres not stated),–,77.3 µM
COc1ccc2c(c1)c(-c1nc(-c3c[nH]c4ncccc34)cs1)cn2CCCN1CCOCC1,3010 nM,16.8 µM
COC1OC(C)C(NC(=O)OCC(Cl)(Cl)Cl)C2OC(C)(C)OC12 (configuration not stated),–,> 100 µM

# Tested on: HCC-2998 colon
# Experiment: NCI-60 cell line screen, 48 h
Structure (SMILES),GI50,TGI
CNCc1cccc2c1OCCOCCOCCN(C)S(=O)(=O)c1ccc(cc1)-c1cnc(N)c(n1)C(=O)N2,15.5 µM,30.3 µM
CN(C)c1ccc(/C=C(\NC(=O)c2ccccc2)C(=O)NC(CC(=O)O)C(=O)O)cc1 (configuration not stated),–,> 100 µM
COC(=O)[C@]1(C)CCC[C@@]2(C)C1CC[C@]13C=C(C(C)C)[C@H](CC21)CC3(Cl)C#N (some centres not stated),–,> 100 µM
COc1ccc2c(c1)c(-c1nc(-c3c[nH]c4ncccc34)cs1)cn2CCCN1CCOCC1,2.04 µM,4.34 µM
COC1OC(C)C(NC(=O)OCC(Cl)(Cl)Cl)C2OC(C)(C)OC12 (configuration not stated),–,> 100 µM

# Tested on: HCT-116 colon
# Experiment: NCI-60 cell line screen, 48 h
Structure (SMILES),GI50,TGI
CNCc1cccc2c1OCCOCCOCCN(C)S(=O)(=O)c1ccc(cc1)-c1cnc(N)c(n1)C(=O)N2,1190 nM,3.12 µM
CN(C)c1ccc(/C=C(\NC(=O)c2ccccc2)C(=O)NC(CC(=O)O)C(=O)O)cc1 (configuration not stated),–,> 100 µM
COC(=O)[C@]1(C)CCC[C@@]2(C)C1CC[C@]13C=C(C(C)C)[C@H](CC21)CC3(Cl)C#N (some centres not stated),–,> 100 µM
COc1ccc2c(c1)c(-c1nc(-c3c[nH]c4ncccc34)cs1)cn2CCCN1CCOCC1,1850 nM,4.04 µM
COC1OC(C)C(NC(=O)OCC(Cl)(Cl)Cl)C2OC(C)(C)OC12 (configuration not stated),–,> 100 µM

# Tested on: HCT-15 colon
# Experiment: NCI-60 cell line screen, 48 h
Structure (SMILES),GI50,TGI
CNCc1cccc2c1OCCOCCOCCN(C)S(=O)(=O)c1ccc(cc1)-c1cnc(N)c(n1)C(=O)N2,1770 nM,7.78 µM
CN(C)c1ccc(/C=C(\NC(=O)c2ccccc2)C(=O)NC(CC(=O)O)C(=O)O)cc1 (configuration not stated),–,> 100 µM
COC(=O)[C@]1(C)CCC[C@@]2(C)C1CC[C@]13C=C(C(C)C)[C@H](CC21)CC3(Cl)C#N (some centres not stated),–,> 100 µM
COc1ccc2c(c1)c(-c1nc(-c3c[nH]c4ncccc34)cs1)cn2CCCN1CCOCC1,2320 nM,7.7 µM
COC1OC(C)C(NC(=O)OCC(Cl)(Cl)Cl)C2OC(C)(C)OC12 (configuration not stated),–,> 100 µM

# Tested on: HL-60(TB) leukemia
# Experiment: NCI-60 cell line screen, 48 h
Structure (SMILES),GI50,TGI
CNCc1cccc2c1OCCOCCOCCN(C)S(=O)(=O)c1ccc(cc1)-c1cnc(N)c(n1)C(=O)N2,578 nM,3.14 µM
CN(C)c1ccc(/C=C(\NC(=O)c2ccccc2)C(=O)NC(CC(=O)O)C(=O)O)cc1 (configuration not stated),–,> 100 µM
COc1ccc2c(c1)c(-c1nc(-c3c[nH]c4ncccc34)cs1)cn2CCCN1CCOCC1,2110 nM,4.36 µM
COC1OC(C)C(NC(=O)OCC(Cl)(Cl)Cl)C2OC(C)(C)OC12 (configuration not stated),–,> 100 µM
